In patent publication US20220087996A1, “Histone acetylase p300 inhibitor and use thereof” (HINOVA PHARMACEUTICALS INC., priority 2018, published 2022):
One block for each compound: values may come before it.

Assays:
HEL = assay: Inhibition of proliferation of HEL cells; type: cell-based; details: Homo sapiens; Leukemia cell line HEL; read-out: IC50 against HEL
Description: (§1) 1) CWR22RV1 cells were subcultured in cell culture medium, and the cells in good growth condition were seeded in a 96-well plate, 80 μL for each well, and the cell number in each well was 1500. The plate was incubated overnight in a 37° C., 5% CO2 cell incubator. 2) The drug was prepared as 30 mM stock solution with dimethyl sulfoxide (DMSO). Prior to use, the stock solution was diluted 3 times with DMSO, and then further diluted as 3-fold gradient to obtain 9 concentration gradients. Then, each concentration of compound was diluted 200 times with the culture solution (ensuring that the DMSO concentration in the culture system was 0.1%), and two replicate wells were set for each concentration. 20 μL of diluted compound solution was added to the cell culture well (with final concentrations of 10 μM, 3.3 μM. 1.1 μM . . . ), and the plate was gently shaken to mix. In addition, 3 negative control wells containing only cells and 3 blank control wells containing only culture medium were included (6 wells were each added 20 μL DMSO diluted 200 times with culture medium). 2. Result detection: (1) After culturing for 6 days, 10 μL CCK-8 was added to each well, and the plate was continually cultured in a 37° C., 5% CO2 cell incubator for 2.5 h. (2) The absorbance (OD value) was detected at 450 nm using a multifunctional microplate reader. (3) The data were analyzed by Dose-response-inhibition equation in the software GraphPad Prism6, and the IC50 value was obtained.
(§2) Using the same method as Experimental example 2, CWR22RV1 cells were replaced with tumor cells in Table 3, and the IC50 (nM) of the compound according to the present invention against the activity of these tumor cells was tested and calculated.

MM.1R = assay: Inhibition of proliferation of MM.1R cells; type: cell-based; details: Lymphoma cell line MM.1R; read-out: IC50 against MM.1R
Description: as §1, §2

Z-138 = assay: Inhibition of proliferation of Z-138 cells; type: cell-based; details: Homo sapiens; Lymphoma cell line Z-138; read-out: IC50 against Z-138
Description: as §1, §2

MM.1S = assay: Inhibition of proliferation of MM.1S cells; type: cell-based; details: Homo sapiens, MM1.S; Multiple myeloma cell line MM.1S; read-out: IC50 against MM.1S
Description: as §1, §2

TALL-1 = assay: Inhibition of proliferation of TALL-1 cells; type: cell-based; details: Homo sapiens; Leukemia cell line TALL-1; read-out: IC50 against TALL-1
Description: as §1, §2

CWR22RV1 cells [1] = assay: Inhibition of proliferation of CWR22RV1 cells (CCK-8); type: cell-based, human; details: Homo sapiens, CWR22Rv1, 144 h, 6 days culture
Summary of the method: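 CWR22RV1 cells (1500/well) were exposed to 9 three-fold compound concentrations (top final 10 μM, 0.1% DMSO) for 6 days. CCK-8 was added for 2.5 h, and absorbance was read at 450 nm. IC50 was fitted with a dose-response-inhibition equation.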

VCAP = assay: Inhibition of proliferation of VCAP cells; type: cell-based; details: Homo sapiens; Prostate cancer cell line VCAP; read-out: IC50 against VCAP
Description: as §1, §2

MOLM-16 = assay: Inhibition of proliferation of MOLM-16 cells; type: cell-based; details: MOLM16; Leukemia cell line MOLM-16; read-out: IC50 against MOLM-16
Description: as §1, §2

KMS-20 = assay: Inhibition of proliferation of KMS-20 cells; type: cell-based; details: Multiple myeloma cell line KMS-20; read-out: IC50 against KMS-20
Description: as §1, §2

OCI-AML3 = assay: Inhibition of proliferation of OCI-AML3 cells; type: cell-based; details: Homo sapiens, OCI-AML-3; Leukemia cell line OCI-AML3; read-out: IC50 against OCI-AML3
Description: as §1, §2

MLMA = assay: Inhibition of proliferation of MLMA cells; type: cell-based; details: Lymphoma cell line MLMA; read-out: IC50 against MLMA
Description: as §1, §2

MCF-7 = assay: Inhibition of proliferation of MCF-7 cells; type: cell-based; details: Homo sapiens, MCF7; Breast cancer cell line MCF-7; read-out: IC50 against MCF-7
Description: as §1, §2

KARPAS-422 = assay: Inhibition of proliferation of KARPAS-422 cells; type: cell-based; details: Homo sapiens; Lymphoma cell line KARPAS-422; read-out: IC50 against KARPAS-422
Description: as §1, §2

RL = assay: Inhibition of proliferation of RL cells; type: cell-based; details: Homo sapiens; Lymphoma cell line RL; read-out: IC50 against RL
Description: as §1, §2

EVSA-T = assay: Inhibition of proliferation of EVSA-T cells; type: cell-based; details: Homo sapiens; Breast cancer cell line EVSA-T; read-out: IC50 against EVSA-T
Description: as §1, §2

NCI-H929 = assay: Inhibition of proliferation of NCI-H929 cells; type: cell-based; details: Homo sapiens; Multiple myeloma cell line NCI-H929; read-out: IC50 against NCI-H929
Description: as §1, §2

HCC1428 = assay: Inhibition of proliferation of HCC1428 cells; type: cell-based; details: Homo sapiens; Breast cancer cell line HCC1428; read-out: IC50 against HCC1428
Description: as §1, §2

LNCAP-AR = assay: Inhibition of proliferation of LNCAP-AR cells; type: cell-based; details: Prostate cancer cell line LNCAP-AR; read-out: IC50 against LNCAP-AR
Description: as §1, §2

OPM-2 = assay: Inhibition of proliferation of OPM-2 cells; type: cell-based; details: Homo sapiens; Multiple myeloma cell line OPM-2; read-out: IC50 against OPM-2
Description: as §1, §2

DU4475 = assay: Inhibition of proliferation of DU4475 cells; type: cell-based; details: Homo sapiens, DU-4475; Breast cancer cell line DU4475; read-out: IC50 against DU4475
Description: as §1, §2

MT-2 = assay: Inhibition of proliferation of MT-2 cells; type: cell-based; details: Homo sapiens, MT2; Leukemia cell line MT-2; read-out: IC50 against MT-2
Description: as §1, §2

LNCAP = assay: Inhibition of proliferation of LNCAP cells; type: cell-based; details: Homo sapiens; Prostate cancer cell line LNCAP; read-out: IC50 against LNCAP
Description: as §1, §2

Pfeiffer = assay: Inhibition of proliferation of Pfeiffer cells; type: cell-based; details: Homo sapiens; Lymphoma cell line Pfeiffer; read-out: IC50 against Pfeiffer
Description: as §1, §2

MAVER-1 = assay: Inhibition of proliferation of MAVER-1 cells; type: cell-based; details: Homo sapiens, Maver1; Lymphoma cell line MAVER-1; read-out: IC50 against MAVER-1
Description: as §1, §2

MOLT-4 = assay: Inhibition of proliferation of MOLT-4 cells; type: cell-based; details: Homo sapiens; Leukemia cell line MOLT-4; read-out: IC50 against MOLT-4
Description: as §1, §2

MDA-MB-453 = assay: Inhibition of proliferation of MDA-MB-453 cells; type: cell-based; details: Homo sapiens; Breast cancer cell line MDA-MB-453; read-out: IC50 against MDA-MB-453
Description: as §1, §2

BT-474 = assay: Inhibition of proliferation of BT-474 cells; type: cell-based; details: Homo sapiens; Breast cancer cell line BT-474; read-out: IC50 against BT-474
Description: as §1, §2

KMS-12-PE = assay: Inhibition of proliferation of KMS-12-PE cells; type: cell-based; details: Homo sapiens; Lymphoma cell line KMS-12-PE; read-out: IC50 against KMS-12-PE
Description: as §1, §2

KMS-11 = assay: Inhibition of proliferation of KMS-11 cells; type: cell-based; details: Homo sapiens; Multiple myeloma cell line KMS-11; read-out: IC50 against KMS-11
Description: as §1, §2

ATN-1 = assay: Inhibition of proliferation of ATN-1 cells; type: cell-based; details: Homo sapiens; Leukemia cell line ATN-1; read-out: IC50 against ATN-1
Description: as §1, §2

CWR22RV1 cells [2] = assay: Compound in combination with CDK4/6 inhibitor palbociclib on proliferation of CWR22RV1 cells; type: cell-based, human; details: Homo sapiens, CWR22Rv1, single agent; read-out: IC50 against the activity of CWR22RV1 cells
Description: The IC50 values (nM) of the compound according to the present invention, palbociclib, and the combination of the compound according to the present invention and palbociclib against CWR22RV1 cell proliferation were tested and calculated, and the detailed procedures were as follows:
(§3) 1) CWR22RV1 cells were subcultured in cell culture medium, and the cells in good growth condition were seeded in a 96-well plate, 60 μL for each well, and the cell number in each well was 2000. The plate was incubated overnight in a 37° C., 5% CO2 cell incubator. 2) The drug was prepared as 10 mM stock solution with dimethyl sulfoxide (DMSO). Prior to use, the stock solution was diluted 3 times with DMSO, and then further diluted as 3-fold gradient to obtain 9 concentration gradients. Then, each concentration of compound was diluted 200 times with the culture solution (ensuring that the DMSO concentration in the culture system was 0.1%), and two replicate wells were set for each concentration. 20 μL of diluted compound solution was added to the cell culture well (with final concentrations of 10 μM, 3.3 μM, 1.1 μM . . . ). Palbociclib was diluted with culture medium to 500 nM, 150 nM, 50 nM, 5 nM, and 20 μL diluted compound solution was added to the corresponding cell culture wells (with a final concentration of 100 nM, 30 nM, 10 nM, 1 nM). The plate was gently shaken to mix. In addition, 3 negative control wells containing only cells and 3 blank control wells containing only culture medium were included (6 wells were each added 20 μL DMSO diluted 200 times with culture medium).
(§4) (1) After culturing for 6 days, 10 μL CCK-8 was added to each well, and the plate was continually cultured in a 37° C., 5% CO2 cell incubator for 2.5 h. (2) The absorbance (OD value) was detected at 450 nm using a multifunctional microplate reader. (3) The data were analyzed by Dose-response-inhibition equation in the software GraphPad Prism6, and the IC50 value was obtained.

MCF-7 cells = assay: Compound in combination with CDK4/6 inhibitor palbociclib against proliferation of MCF-7 cells; type: cell-based; details: Homo sapiens, MCF7, single agent
Description: as §3, §4
Using the same method as Experimental example 4, CWR22RV1 cells were replaced with MCF-7 cells, and the IC50 values (nM) of the compound according to the present invention, palbociclib, as well as the combination of the compound according to the present invention and palbociclib against the proliferation of MCF-7 cells w ere tested and calculated.

- IC50 (MM.1R): 500 to 2000 nM
- IC50 (MM.1S): 500 to 2000 nM
- IC50 (VCAP): ≤ 500 nM
- IC50 (MOLM-16): ≤ 500 nM
- IC50 (OCI-AML3): ≤ 500 nM
- IC50 (MCF-7): ≤ 500 nM
- IC50 (KARPAS-422): ≤ 500 nM
- IC50 (NCI-H929): ≤ 500 nM
- IC50 (HCC1428): ≤ 500 nM
- IC50 (LNCAP-AR): ≤ 500 nM
- IC50 (LNCAP): ≤ 500 nM
- IC50 (MOLT-4): ≤ 500 nM
- IC50 (MDA-MB-453): ≤ 500 nM
- IC50 (BT-474): ≤ 500 nM
Structure (SMILES): CNC(=O)Nc1cc2c(cc1F)[C@@]1(CC2)OC(=O)N(CC(=O)N2[C@@H](C)CC[C@H]2c2cc(F)c(F)c(F)c2)C1=O [Example 390, 1-((R)-6-fluoro-3′-(2-((2S,5S)-2-methyl-5-(3,4,5-trifluorophenyl)pyrrolidin-1-yl)-2-oxoethyl)-2′,4′-dioxo-2,3-dihydrospiro[indene-1,5′-oxazolidine]-5-yl)-3-methylurea]
- IC50 (HEL): ≤ 500 nM
- IC50 (Z-138): ≤ 500 nM
- IC50 (TALL-1): ≤ 500 nM
- IC50 (CWR22RV1 cells [1]; read-out: IC50 against CWR22RV1 cells): ≤ 500 nM
- IC50 (CWR22RV1 cells [1]; read-out: IC50 against CWR22RV1 cells (text)): ≤ 500 nM
- IC50 (KMS-20): ≤ 500 nM
- IC50 (MLMA): ≤ 500 nM
- IC50 (RL): ≤ 500 nM
- IC50 (EVSA-T): 500 to 2000 nM
- IC50 (OPM-2): ≤ 500 nM
- IC50 (DU4475): 500 to 2000 nM
- IC50 (MT-2): 500 to 2000 nM
- IC50 (Pfeiffer): ≤ 500 nM
- IC50 (MAVER-1): ≤ 500 nM
- IC50 (KMS-12-PE): 500 to 2000 nM
- IC50 (KMS-11): ≤ 500 nM
- IC50 (ATN-1): ≤ 500 nM

- IC50 (MCF-7 cells): 34 nM
Structure (SMILES): CC(=O)c1c(C)c2cnc(Nc3ccc(N4CCNCC4)cn3)nc2n(C2CCCC2)c1=O [palbociclib, reference compound]
- IC50 (CWR22RV1 cells [2]): 66 nM
